Experimental data: paper PMC12022980, “Rational Design of PROTAC Linkers Featuring Ferrocene as a Molecular Hinge to Enable Dynamic Conformational Changes” (Journal of the American Chemical Society, 2025)

Molecular target: VCB protein complex (VHL:ElonginC:ElonginB) (Homo sapiens, UniProt P40337)
Test: Native gel electrophoresis assay for ternary complex formation
Type: binding
Settings: VCB incubated with PROTAC 30 min, room temperature
Description: To monitor ternary complex formation mediated by FerroTACs, we leveraged native gel electrophoresis assay, a methodology recently validated to assess VHL dimerization by homo-PROTACs.[41] This in vitro approach serves as a rapid semiqualitative tool to evaluate homo-FerroTAC activity in promoting stable ternary protein complexes. The technique is user-friendly, suitable for higher throughput, and requires lower protein quantities compared to other biophysical methods. The recombinant VCB protein complex (VHL:ElonginC:ElonginB) was incubated with the corresponding Homo-PROTACs (CM11, AS1, cisAS1, AS2) for 30 min at room temperature, followed by non-denaturing gel electrophoresis. Ternary complex formation was indicated by an upward shift in the protein band on the gel, in agreement with the higher molecular weight of the complex. […]
antibody (LI-COR #926-32213, 1:5,000) or IRDye 800CW donkey anti-mouse secondary antibody, (Li-COR […]
room temperature and protected from light. Thereafter, the membranes were washed with TBS-T three times for 10 min, and protein bands were acquired using a ChemiDoc MP imaging system (Bio-Rad). Band quantification was performed using Image Lab software and reported as ratio of each protein band relative to the lane’s loading control. The values obtained were then normalised to vehicle control.
Native Gel Electrophoresis Assay
Gel casting. […]

VCB protein complex (VHL:ElonginC:ElonginB), sequence (P40337 54-213 limits assumed, species assumed): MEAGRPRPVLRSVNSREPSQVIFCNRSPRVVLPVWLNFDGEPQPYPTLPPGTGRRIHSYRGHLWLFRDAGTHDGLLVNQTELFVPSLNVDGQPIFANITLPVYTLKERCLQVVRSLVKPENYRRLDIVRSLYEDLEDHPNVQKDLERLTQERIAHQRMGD
VCB protein complex (VHL:ElonginC:ElonginB), sequence (Q15369 17-112 partner limits assumed, species assumed): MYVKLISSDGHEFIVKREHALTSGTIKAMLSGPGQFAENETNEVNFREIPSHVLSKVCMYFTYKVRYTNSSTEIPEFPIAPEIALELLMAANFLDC
VCB protein complex (VHL:ElonginC:ElonginB), sequence (Q15370 1-104 partner limits assumed, species assumed): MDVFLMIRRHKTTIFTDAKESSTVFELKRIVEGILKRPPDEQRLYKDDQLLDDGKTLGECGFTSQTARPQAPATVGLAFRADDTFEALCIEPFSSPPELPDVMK

SMILES: Cc1ncsc1-c1ccc(CNC(=O)[C@@H]2C[C@@H](O)CN2C(=O)[C@@H](NC(=O)COCCOCCOCCOCCOCCOCC(=O)N[C@H](C(=O)N2C[C@H](O)C[C@H]2C(=O)NCc2ccc(-c3scnc3C)cc2)C(C)(C)C)C(C)(C)C)cc1 [CM11]
- ternary complex formation, native gel (in words): induced formation of an up-shifted protein band
